Reference: US5502061A, “Peptidyl substituted benzamides and naphthamies” (Eli Lilly and Company, priority 1994, dated 1996)

molecular target: T1, HIV-1 protease (Human immunodeficiency virus type 1 group M subtype B, UniProt P04585); assay: Fluorescence HIV-1 Protease Inhibitor Assay; format: biochemical; details: concentration giving 25% inhibition; the concentration of the compound was not increased above the stated concentration; normalized to positive control
T1 construct: made in house; host or cells: E. coli K12 L507/pHP10D (NRRL B-18560)
Protocol: E. Fluorescence HIV-1 Protease Inhibitor Assay
The following buffers and solutions are used in the Fluorescence HIV-1 Protease Inhibitor Assay:
To each well of a round bottom, 96-well plate is added 20 μL of the Enzyme Solution followed by 10 μL of the compound to be evaluated in a 20% aqueous dimethylsulfoxide solution. Purified HIV-1 protease was obtained as described above. […] The solutions are then incubated for 16 hours at room temperature and then each well is diluted with 150 μL of MES-ALB buffer.
To each well of a second round bottom, 96-well Pandex plate is added 25 uL of the Avidin Coated Beads Solution. Then, to each well is added 25 μL of the diluted incubation solutions, prepared above. The solutions are mixed thoroughly and the plates are loaded into a Pandex® machine, washed, evacuated and read. Sample detection was performed by excitation at 485 nm, reading the resulting epifluorescence at 535 nm.

Compound | Fluorescence Assay IC25
CC(C)(C)NC(=O)c1ccccc1CC(O)C(Cc1ccccc1)NC(=O)C(CC(N)=O)NC(=O)C(NC(=O)OC(C)(C)C)c1ccccc1 (stereo not drawn) [Example 17, 2R-(2R*, 3S*, 6S*, 9R*)!-N-t-butyl-2-2-hydroxy-3-phenylmethyl-4,7-diaza 5,8-dioxo-6-(carbamoylmethyl)-9-N(t-butoxycarbonyl)amino-9-phenyl!nonyl benzamide] | 100 ng/mL

same assay, conditions: concentration giving 43% inhibition; the concentration of the compound was not increased above the stated concentration; normalized to positive control

Compound | Fluorescence Assay IC43
CC(C)(C)NC(=O)c1ccccc1CC(O)C(Cc1ccccc1)NC(=O)C(N)CC(N)=O (stereo not drawn) [Example 5B, 2R-(2R*, 3S*, 6S*)!-N-t-Butyl-2-2-hydroxy-3-phenylmethyl-4-aza-5-oxo-6-amino-7-carbamoyl!heptyl benzamide] | 1000 ng/mL

same assay, conditions: purified HIV-1 protease, biotin/FITC-labelled peptide substrate, Pandex read-out; all values normalized to the positive control (= 1.0)

Compound | Fluorescence Assay IC50
CC(C)(C)NC(=O)c1ccccc1CC(O)C(Cc1ccccc1)NC(=O)C(CC(N)=O)NC(=O)C(Cc1ccccc1)NC(=O)OC(C)(C)C (stereo not drawn) [Example 10, 2R-(2R*, 3S*, 6S*, 9R* )!-N-t-Butyl-2-2-hydroxy-3-phenylmethyl-4,7-diaza-5,8-dioxo-6-(carbamoylmethyl)-9-N(t-butoxycarbonyl)amino-10-phenyl!decyl benzamide] | 1.67 ng/mL
CC(C)(C)NC(=O)c1ccccc1CC(O)C(Cc1ccccc1)NC(=O)C(CC(N)=O)NC(=O)C(Cc1c[nH]c2ccccc12)NC(=O)OC(C)(C)C (stereo not drawn) [Example 14, 2R-(2R*, 3S*, 6S*, 9S*)!-N-t-Butyl-2-2-hydroxy-3-phenylmethyl-4,7-diaza-5,8-dioxo-6-(carbamoylmethyl)-9-N(t-butoxycarbonyl)amino-10-indol-3-yl!decyl benzamide] | 0.93 ng/mL
CC(C)(C)NC(=O)c1ccccc1CC(O)C(Cc1ccccc1)NC(=O)C(CC(N)=O)NC(=O)C(Cc1cccc2ccccc12)NC(=O)OC(C)(C)C (stereo not drawn) [Example 6, 2R-(2R*,3S*,6S*,9S*)!-N-t-Butyl-2-2-hydroxy-3-phenylmethyl-4,7-diaza-5,8-dioxo-6-(carbamoylmethyl)-9-N(t-butoxycarbonyl)amino-10-naphth-1-yl!decyl benzamide] | 2.4 ng/mL
CC(C)(C)NC(=O)c1ccccc1CC(O)C(Cc1ccccc1)NC(=O)C(Cc1c[nH]cn1)NC(=O)C(Cc1cccc2ccccc12)NC(=O)OC(C)(C)C (stereo not drawn) [Example 11C, 2R-(2R*,3S*,6S*,9S*)!-N-t-Butyl-2-2-hydroxy-3-phenylmethyl-4,7-diaza-5,8-dioxo-6-(imidazol-4-ylmethyl)-9-N(t-butoxycarbonyl)amino-10-naphth-1-yl!decyl benzamide] | 7.78 ng/mL
CC(C)(C)NC(=O)c1ccccc1CC(O)C(Cc1ccccc1)NC(=O)C(CC(N)=O)NC(=O)C(Cc1cccc2ccccc12)NC(=O)OC(C)(C)C (stereo not drawn) [Example 13, 2R-(2R*,3S*, 6R*,9S*)!-N-t-Butyl-2-2-hydroxy-3-phenylmethyl-4,7-diaza-5,8-dioxo-6-(carbamoylmethyl)-9-N(t-butoxycarbonyl)amino-10-naphth-1-yl!decyl benzamide] | > 10000 ng/mL
CC(C)C(NC(=O)C(Cc1cccc2ccccc12)NC(=O)OC(C)(C)C)C(=O)NC(Cc1ccccc1)C(O)Cc1ccccc1C(=O)NC(C)(C)C (stereo not drawn) [Example 1C, 2R-(2R*, 3S*, 6S*, 9S*)!-N-t-Butyl-2-2-hydroxy-3-phenylmethyl-4,7-diaza-5,8-dioxo-6-(1-methylethyl)-9-N(t-butoxycarbonyl)amino-10-naphth-1-yl!decyl benzamide] | 1.44 ng/mL
CC(C)C(NC(=O)C(Cc1cccc2ccccc12)NC(=O)OC(C)(C)C)C(=O)NC(Cc1ccccc1)C(O)Cc1ccccc1C(=O)NC(C)(C)C (stereo not drawn) [Example 2, 2R-(2R*,3S*,6S*,9R*)!-N-t-Butyl-2-2-hydroxy-3-phenylmethyl-4,7-diaza-5,8-dioxo-6-(1-methylethyl)-9-N(t-butoxycarbonyl)amino-10-naphth-1-yl!decyl benzamide] | 3.13 ng/mL
CC(C)(C)NC(=O)c1ccccc1CC(O)C(Cc1ccccc1)NC(=O)C(CC(N)=O)NC(=O)C(NC(=O)OC(C)(C)C)c1ccccc1 (stereo not drawn) [Example 16, 2R-(2R*, 3S*, 6S*, 9S*)!-N-t-Butyl-2-2-hydroxy-3-phenylmethyl-4,7-diaza-5,8-dioxo-6-(carbamoylmethyl)-9-N(t-butoxycarbonyl)amino-9-phenyl!nonyl benzamide] | 106 ng/mL
CC(C)(C)NC(=O)c1ccccc1CC(O)C(Cc1ccccc1)NC(=O)C(CC(N)=O)NC(=O)C(Cc1cccc2ccccc12)NC(=O)OC(C)(C)C (stereo not drawn) [Example 5C, 2R-(2R*,3S*, 6S*,9R*)!-N-t-Butyl-2-2-hydroxy-3-phenylmethyl-4,7-diaza-5,8-dioxo-6-(carbamoylmethyl)-9-N(t-butoxycarbonyl))amino-10-naphth-1-yl!decyl benzamide] | 0.53 ng/mL
CC(C)(C)NC(=O)c1cccc(CC(O)C(Cc2ccccc2)NC(=O)C(CC(N)=O)NC(=O)C(Cc2c[nH]c3ccccc23)NC(=O)OC(C)(C)C)c1 (stereo not drawn) [Example 15, 2R-(2R*, 3S*, 6S*, 9R*)!-N-t-Butyl-3-2-hydroxy-3-phenylmethyl-4,7-diaza-5,8-dioxo-6-(carbamoylmethyl)-9-N(t-butoxycarbonyl)amino-10-indol-3-yl!decyl benzamide] | 1.05 ng/mL
CC(C)(C)NC(=O)c1ccccc1CC(O)C(Cc1ccccc1)NC(=O)C(CC(N)=O)NC(=O)C(N)Cc1cccc2ccccc12 (stereo not drawn) [Example 7, 2R-(2R*, 3S*, 6S*, 9S*)!-N-t-Butyl-2-2-hydroxy-3-phenylmethyl-4,7-diaza-5,8-dioxo-6-(carbamoylmethyl)-9-amino-10-naphth-1-yl!decyl benzamide] | 0.95 ng/mL
CC(C)(C)NC(=O)c1ccccc1CC(O)C(Cc1ccccc1)NC(=O)C(Cc1c[nH]cn1)NC(=O)C(Cc1cccc2ccccc12)NC(=O)OC(C)(C)C (stereo not drawn) [Example 12, 2R-(2R*,3S*,6S*,9R*)!-N-t-Butyl-2-2-hydroxy-3-phenylmethyl-4,7-diaza-5,8-dioxo-6-(imidazol-4-ylmethyl)-9-N(t-butoxycarbonyl)amino-10-naphth-1-yl!decyl benzamide] | 1.6 ng/mL
2R- (2R*, 3S*, 6S*, 9R*)!-N-t-Butyl-2- 2-hydroxy-3-phenylmethyl-4,7-diaza -2,8-dioxo-6-(1-methylethyl)-9-amino-10-naphth-1-yl!benzamide [Example 4] | 2.48 ng/mL
CC(C)C(NC(=O)C(N)Cc1cccc2ccccc12)C(=O)NC(Cc1ccccc1)C(O)Cc1ccccc1C(=O)NC(C)(C)C (stereo not drawn) [Example 3, 2R-(2R*, 3S*, 6S*, 9S*)!-N-t-Butyl-2-2-hydroxy-3-phenylmethyl-5,8-dioxo-6-(1-methylethyl)-9-amino-10-naphth-1-yl!decyl benzamide] | 0.48 ng/mL
2R-(3R*,3S*,6S*,9R*)!-N-t-Butyl-2- 2-hydroxy-3-phenylmethyl-4,7-diaza -5,8,dioxo-6-(carbamoylmethyl)-9-amino-10-naphth-1-yl!decyl benzamide [Example 8] | 2.28 ng/mL
CC(C)(C)NC(=O)c1ccccc1CC(O)C(Cc1ccccc1)NC(=O)C(CC(N)=O)NC(=O)C(Cc1ccccc1)NC(=O)OC(C)(C)C (stereo not drawn) [Example 9, 2R-(2R*, 3S*, 6S*, 9S*)!-N-t-Butyl-2-2-hydroxy-3-phenylmethyl-4,7-diaza-5,8-dioxo-6-(carbamoylmethyl)-9-N(t-butoxycarbonyl)amino-10-phenyl!decyl benzamide] | 1.76 ng/mL
